pKi: −log10 of the molar value.
What was measured:
hM3 receptor (CHO cells) = target: T1, hM3 receptor (CHO cells) (Homo sapiens, UniProt P20309); experiment: Blockade of agonist-mediated calcium release via FLIPR assay; type: cell-based; conditions: CHO cells stably expressing the hM3 receptor, oxotremorine
T1 construct: expressed in transfected cells
From the text: C. Blockade of Agonist-Mediated Calcium Release via FLIPR Assays
Muscarinic receptor subtypes (M1, M3 and M5 receptors), which couple to Gq proteins, activate the phospholipase C (PLC) pathway upon agonist binding to the receptor. As a result, activated PLC hydrolyzes phosphatyl inositol diphosphate (PIP2) to diacylglycerol (DAG) and phosphatidyl-1,4,5-triphosphate (IP3), which in turn generates calcium release from intracellular stores, i.e., endoplasmic and sarcoplasmic reticulum. […] This fluorescence event was measured in real time by the FLIPR, which detected the change in fluorescence from a monolayer of cells cloned with human M1 and M3, and chimpanzee M5 receptors. Antagonist potency was determined by the ability of antagonists to inhibit agonist-mediated increases in intracellular calcium. […]
To determine antagonist potency, the dose-dependent stimulation of intracellular Ca^2+ release for oxotremorine was first determined so that antagonist potency can later be measured against oxotremorine stimulation at an EC90 concentration. […]
The parameters used for the FLIPR were: exposure length of 0.4 seconds, laser strength of 0.5 watts, excitation wavelength of 488 nm, and emission wavelength of 550 nm. Baseline was determined by measuring the change in fluorescence for 10 seconds prior to addition of agonist. […]

[1] = system: MCh-induced depressor responses; experiment: Methacholine-induced depressor responses in conscious guinea pigs; type: in vivo; conditions: guinea pig, inhalation
From the text: Methacholine-Induced Depressor Responses in Conscious Guinea Pigs
Healthy, adult, male Sprague-Dawley guinea pigs (Harlan, Indianapolis, Ind.), weighing between 200 and 300 g were used in these studies. Under isoflurane anesthesia (to effect), animals were instrumented with common carotid artery and jugular vein catheters (PE-50 tubing). The catheters were exteriorized utilizing a subcutaneous tunnel to the subscapular area. All surgical incisions were sutured with 4-0 Ethicon Silk and the catheters locked with heparin (1000 units/mL). Each animal was administered saline (3 mL, SC) at the end of surgery as well as buprenorphine (0.05 mg/kg, IM). Animals were allowed to recover on a heating pad before being returned to their holding rooms.
Approximately 18 to 20 hours following surgery, the animals were weighed and the carotid artery catheter on each animal was connected to a transducer for recording arterial pressure. Arterial pressure and heart rate was recorded using a Biopac MP-100 Acquisition System. Animals were allowed to acclimate and stabilize for a period of 20 minutes.
Each animal was challenged with MCh (0.3 mg/kg, IV) administered through the jugular venous line and the cardiovascular response was monitored for 10 minutes. […] At 1.5 and 24 h post-dosing, the animals were re-challenged with MCh (0.3 mg/kg, IV) and the hemodynamic response was determined. […]

T1 sequence (P20309 whole entry): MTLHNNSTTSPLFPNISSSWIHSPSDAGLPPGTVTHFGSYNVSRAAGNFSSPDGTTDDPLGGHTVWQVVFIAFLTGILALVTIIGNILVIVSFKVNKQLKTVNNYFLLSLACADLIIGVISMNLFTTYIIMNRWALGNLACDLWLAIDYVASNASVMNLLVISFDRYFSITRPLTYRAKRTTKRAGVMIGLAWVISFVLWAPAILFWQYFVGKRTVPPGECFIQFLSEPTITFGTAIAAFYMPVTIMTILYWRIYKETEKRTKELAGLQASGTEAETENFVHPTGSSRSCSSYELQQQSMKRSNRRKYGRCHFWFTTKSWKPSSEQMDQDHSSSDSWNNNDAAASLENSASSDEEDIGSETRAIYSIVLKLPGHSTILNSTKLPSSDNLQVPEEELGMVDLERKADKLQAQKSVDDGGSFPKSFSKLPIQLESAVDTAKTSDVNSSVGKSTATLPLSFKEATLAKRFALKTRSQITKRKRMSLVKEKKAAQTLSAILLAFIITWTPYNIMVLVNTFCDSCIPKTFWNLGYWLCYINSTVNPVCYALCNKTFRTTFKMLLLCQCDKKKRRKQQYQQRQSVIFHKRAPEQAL

For `CNCC(=O)NCCCCCN1CC[C@@H](C(C(N)=O)(c2ccccc2)c2ccccc2)C1` [Example 1], the pKi (hM3 receptor (CHO cells)) was > 7.00 and the “apparent lung-selectivity index (ratio of anti-depressor ID50 to bronchoprotective ID50)” value [1] was “greater than 5”.

— US7208515B2, “Diphenylmethyl compounds useful as muscarinic receptor antagonists” (Theravance, Inc., priority 2004, dated 2007)
